Experimental data taken from PubChem BioAssay AID2060904 (Molecular Pharmacology Branch, DTP, NCI, 2025).

Tested on: 349418-098-R-PDC complex spheroid viability
Test: Anticancer human tumor 349418-098-R-PDC patient-derived lung adenocarcinoma cell line growth inhibition [RAS]
Conditions: for IC50: curve of first compound; for viability, T/C: stronger effect = lower value
How it was run: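 Multi-cell-type spheroids: tumor cells plus HUVEC endothelial cells and mesenchymal stem cells. RAS-pathway inhibitors were combined with targeted agents, each dosed in half-log steps down from clinical Cmax, or from 10 microM when Cmax was unknown.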

[1] = second compound 0.000949 µM, first compound 0.0316 µM
[2] = second compound 0.000949 µM, first compound 0.1 µM
[3] = second compound 0.000949 µM, first compound 0.316 µM
[4] = second compound 0.000949 µM, first compound 1 µM
[5] = second compound 0.003 µM, first compound 0.0316 µM
[6] = second compound 0.003 µM, first compound 0.1 µM
[7] = second compound 0.003 µM, first compound 0.316 µM
[8] = second compound 0.003 µM, first compound 1 µM
[9] = second compound 0.00949 µM, first compound 0.0316 µM
[10] = second compound 0.00949 µM, first compound 0.1 µM
[11] = second compound 0.00949 µM, first compound 0.316 µM
[12] = second compound 0.00949 µM, first compound 1 µM
[13] = second compound 0.03 µM, first compound 0.0316 µM
[14] = second compound 0.03 µM, first compound 0.1 µM
[15] = second compound 0.03 µM, first compound 0.316 µM
[16] = second compound 0.03 µM, first compound 1 µM
[17] = second compound 0.0949 µM, first compound 0.0316 µM
[18] = second compound 0.0949 µM, first compound 0.1 µM
[19] = second compound 0.0949 µM, first compound 0.316 µM
[20] = second compound 0.0949 µM, first compound 1 µM
[21] = second compound 0.3 µM, first compound 0.0316 µM
[22] = second compound 0.3 µM, first compound 0.1 µM
[23] = second compound 0.3 µM, first compound 0.316 µM
[24] = second compound 0.3 µM, first compound 1 µM
[25] = second compound 0.000949 µM, first compound 0.00316 µM
[26] = second compound 0.000949 µM, first compound 0.01 µM
[27] = second compound 0.003 µM, first compound 0.00316 µM
[28] = second compound 0.003 µM, first compound 0.01 µM
[29] = second compound 0.00949 µM, first compound 0.00316 µM
[30] = second compound 0.00949 µM, first compound 0.01 µM
[31] = second compound 0.03 µM, first compound 0.00316 µM
[32] = second compound 0.03 µM, first compound 0.01 µM
[33] = second compound 0.0949 µM, first compound 0.00316 µM
[34] = second compound 0.0949 µM, first compound 0.01 µM
[35] = second compound 0.3 µM, first compound 0.00316 µM
[36] = second compound 0.3 µM, first compound 0.01 µM
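Note: spheroids exposed to compound for seven days before viability readout.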

CC(Nc1ccc2c(c1)OCCn1cc(N3C(=O)OCC3C(F)F)nc1-2)C(N)=O (stereo unspecified) + CCn1c(-c2cc(N3CCN(C)CC3)cnc2C(C)OC)c2c3cc(ccc31)-c1csc(n1)CC(NC(=O)C1CC1C)C(=O)N1CCCC(N1)C(=O)OCC(C)(C)C2
IC50 (second compound 0.000949 µM): 0.127 µM | IC50 (second compound 0.003 µM): 0.0938 µM | IC50 (second compound 0.00949 µM): 0.158 µM | IC50 (second compound 0.03 µM): 0.0916 µM | IC50 (second compound 0.0949 µM): 0.145 µM | IC50 (second compound 0.3 µM): 0.169 µM | viability, T/C [1]: 75.9% | viability, T/C [2]: 56.3% | viability, T/C [3]: 25.9% | viability, T/C [4]: 19.5% | viability, T/C (second compound 0.000949 µM, first compound 3.16 µM): 25.7% | viability, T/C (second compound 0.000949 µM, first compound 10 µM): 14.8% | viability, T/C [5]: 78.6% | viability, T/C [6]: 49.9% | viability, T/C [7]: 25.1% | viability, T/C [8]: 25.5% | viability, T/C (second compound 0.003 µM, first compound 3.16 µM): 15.4% | viability, T/C (second compound 0.003 µM, first compound 10 µM): 13.2% | viability, T/C [9]: 85.8% | viability, T/C [10]: 57.5% | viability, T/C [11]: 39.6% | viability, T/C [12]: 21.4% | viability, T/C (second compound 0.00949 µM, first compound 3.16 µM): 20.3% | viability, T/C (second compound 0.00949 µM, first compound 10 µM): 14% | viability, T/C [13]: 76.4% | viability, T/C [14]: 44.7% | viability, T/C [15]: 36.8% | viability, T/C [16]: 21.9% | viability, T/C (second compound 0.03 µM, first compound 3.16 µM): 16.7% | viability, T/C (second compound 0.03 µM, first compound 10 µM): 17.3% | viability, T/C [17]: 77.8% | viability, T/C [18]: 59.2% | viability, T/C [19]: 30.7% | viability, T/C [20]: 21.5% | viability, T/C (second compound 0.0949 µM, first compound 3.16 µM): 25.5% | viability, T/C (second compound 0.0949 µM, first compound 10 µM): 15.9% | viability, T/C [21]: 89.2% | viability, T/C [22]: 57.2% | viability, T/C [23]: 42% | viability, T/C [24]: 26.8% | viability, T/C (second compound 0.3 µM, first compound 3.16 µM): 26.6% | viability, T/C (second compound 0.3 µM, first compound 10 µM): 18.8%

C=CC(=O)Nc1cc(Nc2nccc(-c3cn(C)c4ccccc34)n2)c(OC)cc1N(C)CCN(C)C + CCn1c(-c2cc(N3CCN(C)CC3)cnc2C(C)OC)c2c3cc(ccc31)-c1csc(n1)CC(NC(=O)C1CC1C)C(=O)N1CCCC(N1)C(=O)OCC(C)(C)C2
IC50 (second compound 0.000949 µM): > 1 µM | IC50 (second compound 0.003 µM): > 1 µM | IC50 (second compound 0.00949 µM): > 1 µM | IC50 (second compound 0.03 µM): > 1 µM | IC50 (second compound 0.0949 µM): > 1 µM | IC50 (second compound 0.3 µM): > 1 µM | viability, T/C [25]: 101% | viability, T/C [26]: 94.8% | viability, T/C [1]: 112% | viability, T/C [2]: 109% | viability, T/C [3]: 96.8% | viability, T/C [4]: 76% | viability, T/C [27]: 112% | viability, T/C [28]: 95.8% | viability, T/C [5]: 94.4% | viability, T/C [6]: 98.7% | viability, T/C [7]: 95% | viability, T/C [8]: 70.3% | viability, T/C [29]: 100% | viability, T/C [30]: 88.5% | viability, T/C [9]: 94.8% | viability, T/C [10]: 75.8% | viability, T/C [11]: 98.6% | viability, T/C [12]: 75.7% | viability, T/C [31]: 100% | viability, T/C [32]: 107% | viability, T/C [13]: 107% | viability, T/C [14]: 102% | viability, T/C [15]: 92.1% | viability, T/C [16]: 65.3% | viability, T/C [33]: 105% | viability, T/C [34]: 101% | viability, T/C [17]: 97.8% | viability, T/C [18]: 105% | viability, T/C [19]: 86.7% | viability, T/C [20]: 72.8% | viability, T/C [35]: 98.1% | viability, T/C [36]: 101% | viability, T/C [21]: 108% | viability, T/C [22]: 102% | viability, T/C [23]: 109% | viability, T/C [24]: 77.6%

C=CC(=O)Nc1cc(Nc2nccc(-c3cn(C)c4ccccc34)n2)c(OC)cc1N(C)CCN(C)C + CCn1c(-c2cccnc2C(C)OC)c2c3cc(ccc31)N1CCOC(CC(NC(=O)C(C(C)C)N(C)C(=O)C3(F)CCN(C(=O)C#CC(C)(C)N(C)C)CC3)C(=O)N3CCCC(N3)C(=O)OCC(C)(C)C2)C1
IC50 (second compound 0.000949 µM): > 1 µM | IC50 (second compound 0.003 µM): > 1 µM | IC50 (second compound 0.00949 µM): > 1 µM | IC50 (second compound 0.03 µM): > 1 µM | IC50 (second compound 0.0949 µM): > 1 µM | IC50 (second compound 0.3 µM): > 1 µM | viability, T/C [25]: 115% | viability, T/C [26]: 100% | viability, T/C [1]: 93.6% | viability, T/C [2]: 98.3% | viability, T/C [3]: 95.4% | viability, T/C [4]: 71.8% | viability, T/C [27]: 117% | viability, T/C [28]: 98.6% | viability, T/C [5]: 114% | viability, T/C [6]: 116% | viability, T/C [7]: 116% | viability, T/C [8]: 60.7% | viability, T/C [29]: 109% | viability, T/C [30]: 117% | viability, T/C [9]: 110% | viability, T/C [10]: 96% | viability, T/C [11]: 104% | viability, T/C [12]: 75.9% | viability, T/C [31]: 119% | viability, T/C [32]: 109% | viability, T/C [13]: 105% | viability, T/C [14]: 106% | viability, T/C [15]: 103% | viability, T/C [16]: 75.2% | viability, T/C [33]: 110% | viability, T/C [34]: 99.3% | viability, T/C [17]: 85.4% | viability, T/C [18]: 98.6% | viability, T/C [19]: 101% | viability, T/C [20]: 65.3% | viability, T/C [35]: 90.2% | viability, T/C [36]: 99.8% | viability, T/C [21]: 99.2% | viability, T/C [22]: 100% | viability, T/C [23]: 88.2% | viability, T/C [24]: 65.6%
